In patent publication US6469027B1, “N-methyl-D-aspartate (NMDA) receptor blockers for the prevention of atherosclerosis” (The Board of Regents of the University of Nebraska, priority 1996, dated 2002):

Key:
N-VSMC = experiment: Cell proliferation (cell number) of N-VSMC cultures; type: cell-based, chicken; conditions: 100 μM H[cys]; between day 6 and 10; 1% serum
Method: FIGS. 5A and 5B are graphs illustrating cell growth and DNA synthesis of N-VSMC cultures. (A) Cells were cultured in M199 supplemented with 1% FBS in the presence and absence of 100 μM H[cys]. The medium was renewed every three days and cell numbers were determined by Coulter counter or emocytometer. Each point represents the mean of quadruplicate samples counted six times. (B) Cells were grown to confluency, growth arrested in M199 and 1 μg/ml of bovine serum albumin for two days. Cultures were exposed to various concentrations of H[cys] (0.01-1000 μM) for 30 h, pulse labeled for 6 h with 2 μCi/ml of [^3H]thymidine. The amount of [^3H]thymidine incorporation was determined by scintillation spectrophotometry. Results are shown as the mean of ±S.E.M.
(§1) FIGS. 7A-7C are graphs illustrating the effect of H[cys] on diacylglycerol content in N-VSMC. (A) Time course of changes of membrane diacylglycerol content cell treated with 100μM H[cys] for the various times. Cells were recovered, membrane lipids extracted and diacylglycerol amounts determined as described in Methods. Results are expressed as the mean ± standard error of quadruplicate incubations from six independent experiments. (B) Effects of varying concentrations of H[cys] on diacylglycerol synthesis. Cells were treated for 30 min with different concentrations of H[cys] and membrane lipids were isolated and the diacylglycerol content determined. (C) Effect of PKC inhibitors on H[cys] mediated cell proliferation. N-VSMC cultures were grown in 1% FBS and 100 μM H[cys] in the presence and absence of staurosporine and cheleyrithrine chloride for the times (days-d) indicated. Cells were counted in quadruplicate in a Coulter counter every three days. Values represent the mean ±S.D. from four independent experiments.
(§2) Smooth Muscle Culture: The thoracic (N) and abdominal (M) aorta of normal 16 and 18-day embryos were cleaned of fat, and the intima-media was isolated from the adventitia. The intima-media was enzymatically dispersed into a single cell suspensions by a combination of collagenase and elastase followed by trypsin. VSMC were placed in primary culture at a constant density of 2×10^4 cells/cm^2 in multiwell plates or 100 mm culture plates in Medium 199 supplemented with 10% fetal bovine serum (FMS) and 2 mM glutamine, in an atmosphere of 95% air: 5% Co2 at 37° C. Primary cultures were grown for 7 days before they were seeded into first passage at the same cell density and grown to confluence. Experiments were carried out between passages 3-6. Experimental conditions for all cells included 48 h in Medium 199 supplemented with 1% FBS prior to initiating and experiment.

[1] = tested on: human aortic smooth muscle cells; experiment: 3H thymidine uptake in human aortic smooth muscle cells; type: cell-based
Method: FIG. 13 is a graph illustrating 3 H thymidine uptake of human aortic smooth muscle cells in response to differing concentrations of Hcy.
Smooth muscle cell cultures were established from samples of thoracic aorta obtained during organ transplantation. Confluent early passage cells were growth arrested by serum starvation, then they were treated with Hcy in serum free (defined) medium.

TA-VSMCs = experiment: [3H]thymidine labeling (DNA synthesis) in TA-VSMCs; type: cell-based; conditions: 0.1 to 1 mM
From the text: Effect of calcium channel activation on DNA synthesis. Effect of glutamate receptor calcium channels and L-type calcium channels activation was examined by measuring [^3H]thymidine labeling.

[2] = tested on: Rabbit aortic smooth muscle cells; experiment: Calcium uptake in rabbit aortic smooth muscle cells; type: cell-based; conditions: 10μM for 40 seconds
Method: For each of the following experiments, aortic smooth muscle cells were obtained from 2-3 lb. New Zealand rabbits; these cells were cultured as described above, and evaluated for their responses to Hcy. […] This response is similar to that of the embryonic cells (see above).

rat liver cells = conditions: cited from earlier work
[3] = tested on: VSMC isolated from abdominal; experiment: [3H]thymidine incorporation (DNA synthesis) in abdominal aorta VSMC; type: cell-based, chicken; conditions: abdominal VSMC compared with N-VSMC
From the text: as §2
DNA Synthesis: Growth factors were added directly to quiescent VSMCs in Medium 199 as described above. The cells were pulsed between 4-6 h with a final concentration of 2-5 μCi/ml [^3H]thymidine added at the times and for the periods indicated in the figure legends. The cells were washed, and the incorporation of [^3H]thymidine into acid insoluble material was determined as previously described. Den-Heijer, M. et al. (1996), Hyperhomocystinemia as a risk factor for deep-vein thrombosis. N. Eng. J. Med. 334(12):759-762.

PDGG-AA = PDGG-AA release from TA-VSMCs; type: cell-based; conditions: 0.2 mM
[4] = tested on: Thoracic aorta VSMC from E14 embryos; experiment: Intracellular Ca++ by Fura 2 fluorometry; type: cell-based, chicken; conditions: 200 μM Hcy
Method: FIGS. 8A and 8B are graphs illustrating E14 embryonic neural crest-derived response to Hcy. (A) Normal E14 cell response; (B) Ca++ influx is prevented by 15 min pretreatment with NMDA receptor blocker MK801, which acts at the NMDA receptor calcium channel.
The most common signaling device for mitosis is calcium influx. Therefore, the inventors measured the change in intracellular Ca^++ by Fura 2 fluorometry. Thoracic aorta VSMC from E14 embryos were harvested and grown on coverslips using the procedure set forth above. Fura 2 was added during 45 minutes at room temperature. Then the cover slips were placed in a photometer. Fura 2 was excited at 350 and 380 nm with a xenon light source, appropriate monochromators and a chopper (Deltascan, Princeton). Emitted signals passed through a 510±20 band pass filter. When the cells were treated with a solution of 200 μM Hcy, there was a rapid flux of Ca^++ that reached a plateau in about 50 seconds, and remained elevated for the duration of the 500 sec measurement interval as shown in FIGS. 8A and 8B. Similar results have been found with adult rabbit aortic smooth muscle cells, as set forth below.

diacylglycerol = experiment: sn-1,2-Diacylglycerol assay in VSMC; type: cell-based, chicken
Method: as §1
.sn-1,2-Diacylglycerol assay: VSMC were treated with 0.01 to 100 μM H[cys] for 15-60 min. Cells were harvested and lipids were extracted by the method of Priess et al., (18). The analysis of diacylglycerol synthesis was as described previously by Wrenn et al. Wrenn, R. W. et al. (1993). […]

Myb protein = experiment: Expression of Myb protein in rabbit aortic cells; type: cell-based
Method: For each of the following experiments, aortic smooth muscle cells were obtained from 2-3 lb. New Zealand rabbits; these cells were cultured as described above, and evaluated for their responses to Hcy.

In the case of `N[C@@H](CCS)C(=O)O` [homocysteine], the cell number increased (N-VSMC) is reported as 9 fold, the “effect on DNA synthesis” value ([1]; human cell cultures of N-VSMC (data not shown)) is reported as “observed” and the “uptake of 3H thymidine” value ([1]; thoracic aorta cells, serum free medium) is reported as “significant, dose-responsive increase”. The DNA synthesis increased (TA-VSMCs) was 6 fold, the calcium flux [2] was “significant calcium flux” and the “protein bound H[cys] in the microsomal fraction” value (rat liver cells) was 50%. For the same compound, the “effect on DNA synthesis” value [3] was “did not respond similarly”, the “delay in PDGG-AA release” value (PDGG-AA) was “not observed” and the “time for Ca++ flux to reach a plateau” value [4] was “about 50 seconds”. The “concentration at which increase in DAG membrane levels was first evident” value (diacylglycerol; 30 min) was 3 µM, the “increase in DAG production” value (diacylglycerol; treated for 15-60 min) was 3 fold and the “expression of the Myb protein” value (Myb protein) was “dose-responsive expression”.
